From ChEMBL document CHEMBL1130442, “Tetrazole is an effective Sn-3 phosphate replacement in substrate analog inhibitors of 14 kDa phospholipase A2” (Bioorg Med Chem Lett, 1997)

Legend:
[1] = target: T1, Polyunsaturated fatty acid 5-lipoxygenase (Homo sapiens) (UniProt P09917); experiment: Compound was tested for inhibition of 5-lipoxygenase at 50 uM; NI means no inhibition was observed
T1 sequence (whole entry): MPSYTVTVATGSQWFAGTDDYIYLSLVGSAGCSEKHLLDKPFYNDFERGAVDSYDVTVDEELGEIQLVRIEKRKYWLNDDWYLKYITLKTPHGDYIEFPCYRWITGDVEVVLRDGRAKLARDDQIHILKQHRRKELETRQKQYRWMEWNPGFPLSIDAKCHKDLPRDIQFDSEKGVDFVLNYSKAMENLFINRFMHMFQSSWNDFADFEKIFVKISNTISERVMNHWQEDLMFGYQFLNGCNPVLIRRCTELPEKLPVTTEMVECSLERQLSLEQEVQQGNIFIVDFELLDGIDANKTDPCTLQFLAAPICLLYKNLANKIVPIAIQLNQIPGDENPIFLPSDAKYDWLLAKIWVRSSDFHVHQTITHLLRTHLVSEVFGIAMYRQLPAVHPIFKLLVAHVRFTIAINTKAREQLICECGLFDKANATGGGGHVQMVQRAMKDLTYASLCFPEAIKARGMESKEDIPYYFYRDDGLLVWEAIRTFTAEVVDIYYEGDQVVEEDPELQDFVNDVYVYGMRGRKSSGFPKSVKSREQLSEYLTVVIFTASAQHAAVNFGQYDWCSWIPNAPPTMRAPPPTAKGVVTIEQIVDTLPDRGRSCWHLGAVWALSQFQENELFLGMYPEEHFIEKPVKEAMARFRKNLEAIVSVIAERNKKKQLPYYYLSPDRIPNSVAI

Monocyte [2] = experiment: Compound was tested for inhibition of LTC4 release in the human monocytic cell line at 30 uM; format: functional
Monocyte [3] = experiment: Compound was tested for inhibition of LTC4 release in the human monocytic cell line; NI means no inhibition observed; format: functional, cell-based

inhibition [1] | SMILES | inhibition at 30 µM (Monocyte [2]) | inhibition (Monocyte [3])
No inhibition | CCCCCCCCCCCCCCCCCCOCC(CCc1nnn[nH]1)NC(C)=O (centres undefined) | 75% | –
– | CCCCCCCCOC[C@H](COP(=O)(O)OCCN)OP(=O)(O)CCCCCCC | – | No inhibition
– | CCCCCCCCCCCCC(=O)NC(COCCC)COP(=O)(O)OCCO (centres undefined) | – | No inhibition
